Assay results as given in patent publication US20260078239A1, “USE OF AN ANTIOXIDANT FOR REDUCING AND/OR PREVENTING THE TOXICITY OF A RUBBER COMPOSITION” (NYCO, priority 2022, published 2026).

Assays:
[1] = hazard statements in words; cited from earlier work
[2] = system: whole adult planarians; details: 0.22-22 mg/L, 12 days, control points at 7 and 12 days; for Concentration above which behavioral problems potentially linked to cognitive problems in the planarian are observed: adhesion, speed of movement, rest, phototaxis, scrunching

SMILES	Toxicity (confirmed toxicity, ECHA substance information) [1]	Concentration above which significant mortality of planarian is observed according to Zhang et al., Neurotoxicology and Teratology, 2019 [2]	Concentration above which behavioral problems potentially linked to cognitive problems in the planarian are observed [2]
c1ccc(Nc2ccc(Nc3ccccc3)cc2)cc1 [DPPD, N,N′-diphenyl-p-phenylenediamine]	Is harmful to aquatic life with long-term	–	–
c1ccc(Nc2cccc3ccccc23)cc1 [Example 19, N-phenylnaphthalene-1-amine]	–	6.9 mg/L	2200 to 3900 ng/mL
CC(C)(C)c1cc(Cc2cc(C(C)(C)C)c(O)c(C(C)(C)C)c2)cc(C(C)(C)C)c1O [Example 3, 4,4′-Methylene-bis-(2,6-di-tert-butylphenol)]	Under evaluation as an endocrine	–	–
CC(C)CC(C)Nc1ccc(Nc2ccccc2)cc1 (centres unmarked) [Example 22, N-(1,3-Dimethylbutyl)-N′-phenyl-p-phenylenediamine]	Harms fertility or has a negative impact	4.8 mg/L	1500 ng/mL
c1ccc(Nc2ccc(NC3CCCCC3)cc2)cc1 [CPPD, N-cyclohexyl-N′-phenyl-p-phenylenediamine]	Is toxic to aquatic life with long-term	–	–
